Results reported in patent publication US12331033B2, “Inhibitors of SARM1” (Disarm Therapeutics, Inc., priority 2020, dated 2025).

Target: SARM1 (ARM-SAM-TIR) (Homo sapiens (Human), UniProt Q6SZW1)
Assay: ARM-SAM-TIR SARM1 IC50 assay (NADase activity, NAD+ cleavage, RapidFire MS)
Assay type: biochemical
Details: ARM-SAM-TIR lysate 5 μg/mL, 2 h pre-incubation, 5 μM NAD+, 2 hr room temperature
Experimental: This Example describes an assay of ARM-SAM-TIR NADase activity and use of this assay to measure the efficacy of compounds of Formula I or Formula I′ to block SARM1 mediated NAD+ cleavage. This assay was optimized in such a way as to characterize the efficacy of the compounds in Formula I or Formula I′ to inhibit SARM1 activity and to calculate an IC50 value for each compound. This assay makes use of full length SARM1, which encompasses the ARM, SAM and TIR domains.
NRK1-HEK293T cells were seeded onto 150 cm^2 plates at 20×10^6 cells per plate. The next day, the cells were transfected with 15 μg ARM-SAM-TIR expression plasmid, SEQ ID NO: 1.
The cultures were supplemented with 1 mM NR at time of transfection to minimize toxicity from ARM-SAM-TIR overexpression. Forty-eight hours after transfection, cells were harvested, pelleted by centrifugation at 1,000 rpm (Sorvall ST 16R centrifuge, Thermo Fisher), and washed once with cold PBS (0.01 M phosphate buffered saline NaCl 0.138 M; KCl 0.0027 M; pH 7.4). The cells were resuspended in PBS with protease inhibitors (cOmplete™ protease inhibitor cocktail, Roche product #11873580001) and cell lysates were prepared by sonication (Branson Sonifer 450, output=3, 20 episodes of stroke). The lysates were centrifuged (12,000×g for 10 min at 4° C.) to remove cell debris and the supernatants (containing ARM-SAM-TIR protein) were stored at −80° C. for later use in the in vitro ARM-SAM-TIR NADase assay (see below). Protein concentration was determined by the Bicinchoninic (BCA) method and used to normalize lysate concentrations.
The enzymatic assay was performed in a 384-well polypropylene plate in Dulbecco's PBS buffer in a final assay volume of 20 μL. ARM-SAM-TIR lysate with a final concentration of 5 μg/mL was pre-incubated with the respective compound at 1% DMSO final assay concentration over 2 h at room temperature. The reaction was initiated by addition of 5 μM final assay concentration of NAD+ as substrate. After a 2 hr room temperature incubation, the reaction was terminated with 40 μL of stop solution of 7.5% trichloroactetic acid in acetonitrile. The NAD+ and ADPR concentrations were analyzed by a RapidFire High Throughput Mass Spectrometry System (Agilent Technologies, Santa Clara, Calif.) using an API4000 triple quadrupole mass spectrometer (AB Sciex Framingham, Mass.).

Chain of SARM1 (ARM-SAM-TIR) (Q6SZW1 other isoform, or with tags, fused parts or gaps): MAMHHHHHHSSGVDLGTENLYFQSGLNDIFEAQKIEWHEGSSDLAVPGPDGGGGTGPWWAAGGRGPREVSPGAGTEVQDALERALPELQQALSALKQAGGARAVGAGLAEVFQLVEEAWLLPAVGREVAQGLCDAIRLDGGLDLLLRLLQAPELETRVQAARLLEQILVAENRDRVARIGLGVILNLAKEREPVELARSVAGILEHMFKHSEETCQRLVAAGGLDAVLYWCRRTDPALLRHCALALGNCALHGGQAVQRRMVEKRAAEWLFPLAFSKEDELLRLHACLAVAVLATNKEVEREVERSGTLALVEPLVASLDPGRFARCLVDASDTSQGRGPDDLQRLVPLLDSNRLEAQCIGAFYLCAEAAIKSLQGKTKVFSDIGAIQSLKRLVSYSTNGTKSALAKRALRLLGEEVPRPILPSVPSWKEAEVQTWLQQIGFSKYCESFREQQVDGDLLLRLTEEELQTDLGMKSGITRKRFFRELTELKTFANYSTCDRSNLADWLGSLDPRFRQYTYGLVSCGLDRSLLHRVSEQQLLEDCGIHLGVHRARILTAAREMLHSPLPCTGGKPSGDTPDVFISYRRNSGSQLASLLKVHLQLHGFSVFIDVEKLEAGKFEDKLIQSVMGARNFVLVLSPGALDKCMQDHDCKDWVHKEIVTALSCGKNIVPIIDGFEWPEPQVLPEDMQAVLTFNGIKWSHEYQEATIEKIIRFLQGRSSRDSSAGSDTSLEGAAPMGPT

| SMILES | IC50 |
| --- | --- |
| O=C(NCc1ccc(Cl)nc1)Nc1nnc(-c2ccncc2)[nH]1 [Example 165] | < 5 µM |
| NC(=O)c1cnccc1-c1nnc(NC(=O)CCc2ccc(Cl)cc2)[nH]1 [Example 286] | < 5 µM |
| Cc1c(-c2ccncc2)n[nH]c1NC(=O)CCc1ccc(C(F)(F)F)nc1 [Example 261] | < 5 µM |
| O=C(CNc1ccc(Cl)cc1)Nc1cc(-c2ccncc2)n[nH]1 [Example 4] | < 5 µM |
| Cc1c(-c2ccncc2)n[nH]c1NC(=O)COc1ccc(Cl)cc1 [Example 269] | < 5 µM |
| CCC(C)c1cc(C(=O)Nc2[nH]nc(-c3ccncc3)c2C)on1 (stereo not shown) [Example 244] | 5 to 15 µM |
| Cc1c(-c2ccncc2)n[nH]c1NC(=O)CCc1ccc(Cl)s1 [Example 202] | < 5 µM |
| Cc1c(-c2ccnnc2)n[nH]c1NC(=O)CCc1ccc(Cl)nc1 [Example 205] | < 5 µM |
| N[C@H](Cc1ccc(Cl)cc1)C(=O)Nc1nnc(-c2ccncc2)[nH]1 [Example 82] | < 5 µM |
| C[C@H](CC(=O)Nc1nnc(-c2ccncc2)[nH]1)c1ccccc1 [Example 94] | 15 to 30 µM |
| CCc1ccc(CCC(=O)Nc2nc(-c3ccncc3)n[nH]2)cc1 [Example 44] | < 5 µM |
| Cc1c(-c2ccncc2F)n[nH]c1NC(=O)CCc1ccc(Cl)nc1 [Example 314] | < 5 µM |
| Cc1c(-c2ccncc2)n[nH]c1NC(=O)[C@@H](O)Cc1ccc(Cl)cc1 [Example 290] | < 5 µM |
| O=C(Nc1cc(-c2ccncc2)n[nH]1)[C@H]1C[C@H](c2ccc(Cl)cc2)C1 [Example 181] | < 5 µM |
| O=C(Nc1nnc(-c2ccncc2)[nH]1)NC1CCOc2cc(Cl)ccc21 (stereo not shown) [Example 183] | 5 to 15 µM |
| O=C(CC1CCOc2cc(Cl)ccc21)Nc1nnc(-c2ccncc2)[nH]1 (stereo not shown) [Example 29] | < 5 µM |
| O=C(Nc1nnc(-c2ccncc2)[nH]1)[C@H]1C[C@H](c2ccc(Cl)nc2)C1 [Example 280] | < 5 µM |
| O=C(Nc1cc(-c2ccnnc2)n[nH]1)[C@H]1C[C@H](c2ccc(Cl)nc2)C1 [Example 210] | < 5 µM |
| O=C(CCc1ccc(Cl)cc1)Nc1[nH]nc(-c2ccncc2)c1F [Example 168] | < 5 µM |
| O=C(CCc1ccc(Cl)c(Br)c1)Nc1nnc(-c2ccncc2)[nH]1 [Example 10] | < 5 µM |
| Cc1c(-c2ccncc2)n[nH]c1NC(=O)CCc1ccc(C#N)cc1 [Example 262] | < 5 µM |
| O=C(Nc1nnc(-c2ccncc2)[nH]1)[C@H]1C[C@@H](c2ccc(Cl)cc2)C1 [Example 23] | < 5 µM |
| Cn1ccnc1CCC(=O)Nc1nnc(-c2ccncc2)[nH]1 [Example 128] | > 30 µM |
| O=C(CCc1ccc(Cl)cc1)Nc1[nH]nc(-c2ccncc2)c1C1CCC1 [Example 203] | < 5 µM |
| O=C(CCc1ccc(Cl)nc1)Nc1nnc(-c2ccncc2)[nH]1 [Example 84] | < 5 µM |
| O=C(CC1CCOc2cc(Cl)ccc21)Nc1cc(-c2ccncc2)n[nH]1 (stereo not shown) [Example 172] | < 5 µM |

| SMILES | IC50 |
| --- | --- |
| Cc1c(-c2ccncc2)n[nH]c1NC(=O)N1CC(c2ccc(Cl)cc2)C1 [Example 218] | < 5 µM |
| Cc1c(-c2ccncc2)n[nH]c1NC(=O)C1Cc2ccccc2CO1 (stereo not shown) [Example 323] | 5 to 15 µM |
| Cc1cnccc1-c1nnc(NC(=O)CCc2ccc(Cl)cc2)[nH]1 [Example 217] | < 5 µM |
| Cn1nc(-c2ccncc2)nc1NC(=O)CCc1ccccc1 [Example 110] | > 30 µM |
| O=C(NCc1ccc(Cl)cc1)Nc1cc(-c2ccncc2)n[nH]1 [Example 7] | < 5 µM |
| O=C(CCc1cccc(F)c1)Nc1nnc(-c2ccncc2)[nH]1 [Example 15] | < 5 µM |
| O=C(CC1CCOc2cc(Cl)ccc21)Nc1cc(-c2ccnnc2)n[nH]1 (stereo not shown) [Example 192] | < 5 µM |
| O=C(Nc1nnc(-c2ccncc2)[nH]1)C1CCc2ccccc2C1 (stereo not shown) [Example 131] | < 5 µM |
| O=C(C[C@@H]1CCOc2nc(Cl)ccc21)Nc1nnc(-c2ccncc2)[nH]1 [Example 233] | < 5 µM |
| O=C(CCc1ccc(Cl)cc1)Nc1nnc(-c2cncs2)[nH]1 [Example 60] | < 5 µM |
| O=C(CCc1ccc2[nH]ncc2c1)Nc1nnc(-c2ccncc2)[nH]1 [Example 49] | > 30 µM |
| O=C(CC1OCCc2ccccc21)Nc1nnc(-c2ccncc2)[nH]1 (stereo not shown) [Example 58] | 5 to 15 µM |
| O=C(CCc1ccc(Cl)nc1)Nc1cc(-c2cccnc2)n[nH]1 [Example 267] | 5 to 15 µM |
| O=C(CCc1ccc(Cl)cc1F)Nc1nnc(-c2ccncc2)[nH]1 [Example 46] | < 5 µM |
| O=C(CCc1ccc(Cl)cc1)Nc1[nH]nc(-c2ccncc2)c1CO [Example 194] | < 5 µM |
| Cc1c(-c2ccncc2)n[nH]c1NC(=O)c1ccc(OCC2CC2)cc1 [Example 252] | 5 to 15 µM |
| Cc1c(-c2ccncc2)n[nH]c1NC(=O)CCc1ccc(Cl)c(C#N)c1 [Example 270] | < 5 µM |
| CN(Cc1ccc(Cl)cc1)C(=O)Nc1cc(-c2ccncc2)n[nH]1 [Example 6] | < 5 µM |
| O=C(CC1CNc2cc(Cl)ccc21)Nc1nnc(-c2ccncc2)[nH]1 (stereo not shown) [Example 283] | < 5 µM |
| O=C(CCc1ccc(Br)cc1)Nc1nnc(-c2ccncc2)[nH]1 [Example 105] | < 5 µM |
| Cc1c(-c2ccncc2)n[nH]c1NC(=O)CCc1cc(F)cc(F)c1 [Example 222] | < 5 µM |
| Cc1[nH]c(NC(=O)CCc2ccc(Cl)nc2)nc1-c1ccncc1 [Example 250] | < 5 µM |
| O=C(CCc1ccc(Cl)cc1)Nc1nnc(-c2ccncc2)[nH]1 [Example 136] | < 5 µM |
| O=C(Nc1nnc(-c2ccnnc2)[nH]1)[C@H]1C[C@H](c2ccc(Cl)cc2)C1 [Example 196] | < 5 µM |
| O=C(CCc1ccc(C(F)(F)F)cc1)Nc1nnc(-c2ccncc2)[nH]1 [Example 124] | < 5 µM |
| N#Cc1c(-c2ccncc2)n[nH]c1NC(=O)CCc1ccc(Cl)nc1 [Example 195] | < 5 µM |

| SMILES | IC50 |
| --- | --- |
| O=C(Nc1nnc(-c2ccncc2)[nH]1)[C@@H]1C[C@H]1c1ccccc1 [Example 104] | 5 to 15 µM |
| O=C(CNc1ccccc1)Nc1nnc(-c2ccncc2)[nH]1 [Example 69] | 5 to 15 µM |
| O=C(Nc1cc(-c2ccncc2)n[nH]1)[C@H]1C[C@H](c2ccc(Cl)nc2)C1 [Example 236] | < 5 µM |
| Cc1ccc(OCC(=O)Nc2[nH]nc(-c3ccncc3)c2C)cc1 [Example 257] | 5 to 15 µM |
| COCc1c(-c2ccncc2)n[nH]c1NC(=O)CCc1ccc(Cl)nc1 [Example 297] | < 5 µM |
| Cc1c(-c2ccncc2)n[nH]c1NC(=O)CCc1cnc(Cl)c(F)c1 [Example 151] | < 5 µM |
| O=C(CC1CCOc2cc(Cl)ccc21)Nc1nnc(-c2ccnnc2)[nH]1 (stereo not shown) [Example 193] | < 5 µM |
| N#Cc1cc(Cl)ccc1CCC(=O)Nc1nnc(-c2ccncc2)[nH]1 [Example 50] | < 5 µM |
| O=C(CCc1ccc(Cl)cc1)Nc1cc(-c2ccncn2)n[nH]1 [Example 26] | < 5 µM |
| O=C(CCc1ccc(Cl)s1)Nc1cc(-c2ccnnc2)[nH]n1 [Example 24] | < 5 µM |
| Nc1cnccc1-c1cc(NC(=O)CCc2ccc(Cl)nc2)[nH]n1 [Example 294] | < 5 µM |
| Cc1c(-c2ccncc2)n[nH]c1NC(=O)CCc1ccc(Cl)c(F)c1 [Example 188] | < 5 µM |
| O=C(CCc1ccc(F)c(F)c1)Nc1cc(-c2ccncc2)n[nH]1 [Example 17] | < 5 µM |
| Cc1c(-c2ccnnc2)n[nH]c1NC(=O)CC1CCOc2cc(Cl)ccc21 (stereo not shown) [Example 231] | < 5 µM |
| CC(C)(Cc1ccccc1)C(=O)Nc1nnc(-c2ccncc2)[nH]1 [Example 96] | 5 to 15 µM |
| N#Cc1cnccc1-c1cc(NC(=O)CCc2ccc(Cl)cc2)[nH]n1 [Example 238] | < 5 µM |
| O=C(Cc1ccccc1)Nc1nnc(-c2ccncc2)[nH]1 [Example 143] | 15 to 30 µM |
| Cc1c(-c2ccncc2)n[nH]c1NC(=O)CCc1ccc(Cl)cc1 [Example 18] | < 5 µM |
| O=C(Nc1nnc(-c2ccncc2)[nH]1)N[C@H]1CCOc2cc(Cl)ncc21 [Example 277] | < 5 µM |
| N[C@@H](Cc1ccc(Cl)cc1)C(=O)Nc1cc(-c2ccncc2)n[nH]1 [Example 3] | < 5 µM |
| N#Cc1ccc(CCC(=O)Nc2nnc(-c3ccncc3)[nH]2)cc1 [Example 119] | < 5 µM |
| O=C(CCc1ccc(Cl)cc1)Nc1cc(-c2ccncc2F)n[nH]1 [Example 25] | < 5 µM |
| Cn1c(CCC(=O)Nc2nnc(-c3ccncc3)[nH]2)nc2ccccc21 [Example 122] | 15 to 30 µM |
| O=C(Nc1nnc(-c2ccncc2)[nH]1)[C@H]1C[C@H](c2ccc(Cl)cc2)C1 [Example 22] | < 5 µM |
